Consider 23 molecules from patent US8076486B2, “Heteroaryl-substituted arylaminopyridine derivatives as MEK inhibitors” (Merck Serono S.A., priority 2006, dated 2011).

In assay [1] the test system is Murine colon C26 cells. In words: Tumor Cell Proliferation Assay (ATP Lite), C26. The format is cell-based. The conditions noted are these: Mus musculus, 96 h, 4 days, ATPlite. On the procedure: (§1) Assay 2: Tumor Cell Proliferation Assays (ATP Lite)
(§2) Murine colon C26 (1500 cells/well), human melanoma A375 (2000 cells/well), or human pancreatic MiaPaCa-2 cells (2000 cells/well) were plated in white, 96 well plates (Corning) in growth media (DMEM with 10% fetal bovine serum, 2 mM glutamine for C26 and MiaPaCa-2, and RPMI with 10% fetal bovine serum, 2 mM glutamine for A375) and cultured overnight at 37° C. in a humidified, 5% CO2 incubator. Inhibitors were serially diluted in 100% DMSO and subsequently added to the cells, in growth media, to reach a final concentration of 0.25% DMSO. The cells were incubated for 4 days in the presence of the test compounds and the proliferation was quantitated using the ATPlite cell proliferation kit (Packard).

Assay [2] has as its target human MEK1 (Homo sapiens, UniProt Q02750, S218E/S222E). As to the kind of experiment: MEK-1 Enzyme Assay (LANCE-HTRF). The format is biochemical. The conditions noted are these: MEK-1 EE, ERK-2K52A substrate, 9 uM ATP, 1.5 hrs. On the procedure:
Assay 1: MEK-1 Enzyme Assay (LANCE-HTRF)
Inhibition of human MEK1 kinase activity was monitored with a homogenous, fluorescence-based assay. The assay uses time resolved fluorescence resonance energy transfer to probe for phosphorylation of ERK1 by MEK1. The detailed procedure is described in the following:
Constititutively active MEK-1 EE (150 ng/well) and ERK-2K52A (110 ng/well) were incubated in black, 384 well Optiplates (Perkin Elmer) for 1.5 hrs at room temperature, in the presence of increasing concentrations of inhibitors. The total reaction volume was 50 ul. The inhibitors were serial diluted in kinase buffer (9 uM ATP, 50 mM Tris-Hcl pH 8.0, 10 mM MgCl2, 1 mM DTT and 100 uM Na3VO4), to a final concentration of 1% DMSO. At the end of the incubation, the enzyme reaction was quenched by adding 50 ul of assay buffer containing 50 mM Tris-Hcl, 50 mM EDTA, 0.1% BSA and a mixture of 1.25 ug/mL europium labeled anti-phosphotyrosine mAb (Perkin Elmer) and 5 ug/mL of allophycocyanin labeled anti-GST antibody (CIS-US). Plates were agitated on a plate shaker for 30 minutes and the phosphorylation of the ERK-2K52A substrate was measured by homogeneous time resolved fluorescence (HTRF) at 340 nm excitation and […] emission filters on the VICTOR V fluorescence plate reader. Phosphorylation is expressed as a ratio of 665 nM signal×10,000/615 nM signal. To assess the inhibitory potential of the compounds, IC50-values were determined.
A general note: Time-resolved FRET reads energy transfer from a long-lived donor to a nearby acceptor.

The subject of assay [3] is human pancreatic MiaPaCa-2 cells. As to the kind of experiment: Tumor Cell Proliferation Assay (ATP Lite), MiaPaCa-2. The conditions noted are these: MIA PaCa-2, 96 h, 4 days, ATPlite, read-out: MiaPaCa2 cell proliferation IC50. The format is cell-based. On the procedure: as §1, §2
In general terms: Cellular ATP, detected with luciferase, serves as a proxy for viable cell number.

Assay [4] relates to human melanoma A375 cells. As to the kind of experiment: Tumor Cell Proliferation Assay (ATP Lite), A375. The format is cell-based. The conditions noted are these: A-375, 96 h, 4 days, ATPlite. On the procedure: as §1, §2

pIC50: −log10 of the molar value.

Chain of human MEK1 (Q02750 whole entry S218E/S222E): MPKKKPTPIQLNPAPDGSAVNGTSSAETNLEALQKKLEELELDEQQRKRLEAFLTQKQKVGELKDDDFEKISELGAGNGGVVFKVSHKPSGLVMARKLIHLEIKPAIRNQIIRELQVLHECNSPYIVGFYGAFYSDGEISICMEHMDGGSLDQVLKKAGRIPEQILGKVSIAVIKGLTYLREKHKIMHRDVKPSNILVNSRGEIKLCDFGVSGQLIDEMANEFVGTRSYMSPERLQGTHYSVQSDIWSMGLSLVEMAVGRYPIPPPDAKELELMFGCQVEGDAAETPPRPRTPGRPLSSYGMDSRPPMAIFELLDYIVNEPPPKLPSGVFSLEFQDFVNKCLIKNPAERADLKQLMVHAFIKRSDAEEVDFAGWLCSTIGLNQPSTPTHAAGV

As to `CC(=O)Nc1nnc(-c2ccncc2Nc2ccc(I)cc2F)o1` [Example 21, N-{5-[3-(2-Fluoro-4-iodo-phenylamino)-pyridin-4-yl]-[1,3,4]oxadiazol-2-yl}-acetamide], the pIC50 in assay [1], in assay [2], in assay [3] and in assay [4] was not below 5.52 in each case.

As to `CN(C)CCNc1nnc(-c2ccncc2Nc2ccc(I)cc2F)o1` [Example 22, N-{5-[3-(2-Fluoro-4-iodo-phenylamino)-pyridin-4-yl]-[1,3,4]oxadiazol-2-yl}-N′,N′-dimethyl-ethane-1,2-diamine], the pIC50 in assay [1], in assay [2], in assay [3] and in assay [4] was not below 5.52 in each case.

On to `Fc1cc(I)ccc1Nc1cnccc1-c1nnc(NCCN2CCCC2)o1` [Example 23, (2-Fluoro-4-iodo-phenyl)-{4-[5-(2-pyrrolidin-1-yl-ethylamino)-[1,3,4]oxadiazol-2-yl]-pyridin-3-yl}-amine], for which the pIC50 in assay [1], in assay [2], in assay [3] and in assay [4] was not below 5.52 throughout.

As to `Nc1nnc(-c2ccncc2Nc2ccc(I)cc2Cl)o1` [Example 24, [4-(5-Amino-[1,3,4]oxadiazol-2-yl)-pyridin-3-yl]-(2-chloro-4-iodo-phenyl)-amine], the pIC50 in assay [1], in assay [2], in assay [3] and in assay [4] was not below 5.52 each time.

With `COc1ccc(Nc2cnccc2-c2nnc(N)o2)c(F)c1` [Example 25, [4-(5-Amino-[1,3,4]oxadiazol-2-yl)-pyridin-3-yl]-(2-fluoro-4-methoxy-phenyl)-amine], the pIC50 in assay [1], in assay [2], in assay [3] and in assay [4] was not below 5.52 each time.

Consider `CCOC(=O)Nc1nnc(-c2ccncc2Nc2ccc(I)cc2F)o1` [Example 26, {5-[3-(2-Fluoro-4-iodo-phenylamino)-pyridin-4-yl]-[1,3,4]oxadiazol-2-yl}-carbamic acid ethyl ester], for which the pIC50 in assay [1], in assay [2], in assay [3] and in assay [4] was not below 5.52 in each case.

On to `Nc1nnc(-c2cc[n+]([O-])cc2Nc2ccc(I)cc2F)o1` [Example 27, [4-(5-Amino-[1,3,4]oxadiazol-2-yl)-1-oxy-pyridin-3-yl]-(2-fluoro-4-iodo-phenyl)-amine], for which the pIC50 in assay [1], in assay [2], in assay [3] and in assay [4] was not below 5.52 each time.

In the case of `Cc1cc(I)ccc1Nc1cnccc1-c1nnc(N)o1` [Example 29, [4-(5-Amino-[1,3,4]oxadiazol-2-yl)-pyridin-3-yl]-(4-iodo-2-methyl-phenyl)-amine], the pIC50 in assay [1], in assay [2], in assay [3] and in assay [4] was not below 5.52 in each case.

In the case of `CCOC(=O)c1nnc(-c2ccncc2Nc2ccc(I)cc2F)[nH]1` [Example 31, 5-[3-(2-Fluoro-4-iodo-phenylamino)-pyridin-4-yl]-4H-[1,2,4]triazole-3-carboxylic acid ethyl ester], the pIC50 was 4.60 to 5.52 in assay [1], not below 5.52 in assay [2], 4.60 to 5.52 in assay [3] and not below 5.52 in assay [4].

As for `OCc1nnc(-c2ccncc2Nc2ccc(I)cc2F)[nH]1` [Example 32, {5-[3-(2-Fluoro-4-iodo-phenylamino)-pyridin-4-yl]-4H-[1,2,4]triazol-3-yl}-methanol], the pIC50 in assay [1], in assay [2], in assay [3] and in assay [4] was not below 5.52 throughout.

For the molecule `Cc1cc(I)ccc1Nc1cnccc1-c1nnc(N)[nH]1` [Example 33, [4-(5-Amino-4H-[1,2,4]triazol-3-yl)-pyridin-3-yl]-(4-iodo-2-methyl-phenyl)-amine], the pIC50 in assay [1], in assay [2], in assay [3] and in assay [4] was not below 5.52 in each case.

On to `Nc1nnc(-c2ccncc2Nc2ccc(Br)cc2F)o1` [Example 34, [4-(5-Amino-[1,3,4]oxadiazol-2-yl)-pyridin-3-yl]-(4-bromo-2-fluoro-phenyl)-amine], for which the pIC50 in assay [1], in assay [2], in assay [3] and in assay [4] was not below 5.52 in each case.

Consider `Nc1nnc(-c2ccncc2Nc2ccc(Br)cc2Cl)o1` [Example 35, [4-(5-Amino-[1,3,4]oxadiazol-2-yl)-pyridin-3-yl]-(4-bromo-2-chloro-phenyl)-amine], for which the pIC50 in assay [1], in assay [2], in assay [3] and in assay [4] was not below 5.52 throughout.

Regarding `Fc1cc(I)ccc1Nc1cnccc1-c1ncno1` [Example 37, (2-Fluoro-4-iodo-phenyl)-(4-[1,2,4]oxadiazol-5-yl-pyridin-3-yl)-amine], the pIC50 in assay [1], in assay [2], in assay [3] and in assay [4] was not below 5.52 each time.

Turning to `OCc1noc(-c2ccncc2Nc2ccc(I)cc2F)n1` [Example 38, {5-[3-(2-Fluoro-4-iodo-phenylamino)-pyridin-4-yl]-[1,2,4]oxadiazol-3-yl}-methanol], the pIC50 in assay [1] was not below 5.52; in assay [2] it was not below 5.52; in assay [3], 4.60 to 5.52; in assay [4], not below 5.52.

On to `CCOC(=O)c1nnc(-c2ccncc2Nc2ccc(I)cc2F)o1` [Example 39, 5-[3-(2-Fluoro-4-iodo-phenylamino)-pyridin-4-yl]-[1,3,4]oxadiazole-2-carboxylic acid ethyl ester], for which the pIC50 was less than 4.60 in assay [1], not below 5.52 in assay [2], less than 4.60 in assay [3] and not below 5.52 in assay [4].

Turning to `Fc1cc(I)ccc1Nc1cnccc1-c1nnco1` [Example 40, (2-Fluoro-4-iodo-phenyl)-(4-[1,3,4]oxadiazol-2-yl-pyridin-3-yl)-amine], the pIC50 in assay [1], in assay [2], in assay [3] and in assay [4] was not below 5.52 in each case.

Regarding `Nc1nnc(-c2ccncc2Nc2ccc(I)cc2F)[nH]1` [Example 41, [4-(5-Amino-4H-[1,2,4]triazol-3-yl)-pyridin-3-yl]-(2-fluoro-4-iodo-phenyl)-amine], the pIC50 in assay [1], in assay [2], in assay [3] and in assay [4] was not below 5.52 each time.

Consider `CN(C)c1nnc(-c2ccncc2Nc2ccc(I)cc2F)o1` [Example 42, [4-(5-Dimethylamino-[1,3,4]oxadiazol-2-yl)-pyridin-3-yl]-(2-fluoro-4-iodo-phenyl)-amine], for which the pIC50 in assay [1], in assay [2], in assay [3] and in assay [4] was not below 5.52 in each case.

In the case of `COC(=O)CNc1nnc(-c2ccncc2Nc2ccc(I)cc2F)o1` [Example 43, {5-[3-(2-Fluoro-4-iodo-phenylamino)-pyridin-4-yl]-[1,3,4]oxadiazol-2-ylamino}-acetic acid methyl ester], the pIC50 in assay [1] is not below 5.52; in assay [2], not below 5.52; in assay [3] it was 4.60 to 5.52; in assay [4], not below 5.52.

`OCCNc1nnc(-c2ccncc2Nc2ccc(I)cc2F)o1` [Example 44, 2-{5-[3-(2-Fluoro-4-iodo-phenylamino)-pyridin-4-yl]-[1,3,4]oxadiazol-2-ylamino}-ethanol]: the pIC50 in assay [1], in assay [2], in assay [3] and in assay [4] was not below 5.52 in each case.

As to `O=C(O)CNc1nnc(-c2ccncc2Nc2ccc(I)cc2F)o1` [Example 45, {5-[3-(2-Fluoro-4-iodo-phenylamino)-pyridin-4-yl]-[1,3,4]oxadiazol-2-ylamino}-acetic acid], the pIC50 in assay [1] is 4.60 to 5.52; in assay [2], not below 5.52; in assay [3], 4.60 to 5.52; in assay [4], not below 5.52.

Turning to `NC(=O)CNc1nnc(-c2ccncc2Nc2ccc(I)cc2F)o1` [Example 46, 2-{5-[3-(2-Fluoro-4-iodo-phenylamino)-pyridin-4-yl]-[1,3,4]oxadiazol-2-ylamino}-acetamide], the pIC50 in assay [1], in assay [2], in assay [3] and in assay [4] was not below 5.52 each time.
